The Deep4Chem optical property database
Blank lines part the entries; values can stand above or below the compound they belong to.

Assay: solvent given as SMILES

Structure (SMILES): CCCCN(c1ccccc1)c1ccc2c(c1)C(CC)(CC)c1cc(/C=C/c3ccc(/C=C(\C#N)C(=O)O)s3)ccc1-2
emission maximum (in C1CCOC1): 622 nm | emission maximum (in C1COCCO1): 621 nm | emission maximum (in CC#N): 518 nm | emission maximum (in CC(C)=O): 576 nm | emission maximum (in CCOC(C)=O): 590 nm | emission maximum (in CN(C)C=O): 605 nm | emission maximum (in CS(C)=O): 520 nm | emission maximum (in ClCCl): 595 nm

emission maximum (in C1CCOC1): 457 nm
Structure (SMILES): COc1ccc(C2=C(c3ccc(OC)cc3)[Si](c3ccccc3)(c3ccccc3)c3ccccc32)cc1

emission maximum (in CCO): 584 nm | emission maximum (in ClCCl): 582 nm
Structure (SMILES): Cc1ccccc1-c1c2ccc(=[N+]3CCCCC3)cc-2oc2cc(N3CCCCC3)ccc12

Structure (SMILES): Fc1cccc(F)c1[B-]1(c2c(F)cccc2F)Oc2c(ccc3c4c(ccc23)C=[N+](c2ccccc2)[B-](c2c(F)cccc2F)(c2c(F)cccc2F)O4)C=[N+]1c1ccccc1
emission maximum (in Cc1ccccc1): 592 nm | emission maximum (in ClCCl): 585 nm

emission maximum (in CC#N): 550 nm
Structure (SMILES): COc1ccc(-c2csc(/C(C#N)=C/c3c(Cl)cccc3Cl)n2)cc1

Structure (SMILES): COc1ccccc1-c1nc2c3ccccc3c3ccccc3c2n1-c1ccc(C)cc1
emission maximum (in Cc1ccccc1): 371 nm

emission maximum (in C1CCCCC1): 363 nm
Structure (SMILES): CCCC1(CCC)c2cc(-c3cccc(C)c3)ccc2-c2ccc(-c3cccc(C)c3)cc21

emission maximum (in ClC(Cl)Cl): 409 nm
Structure (SMILES): CCCCn1c2ccccc2c2ccc3c4cc(-c5ccc(OC)cc5)ccc4n(CCCC)c3c21

emission maximum (in CS(C)=O): 416 nm
Structure (SMILES): COc1cc2sc3cc(OC)c(F)cc3c(=O)c2cc1F

emission maximum (in C1CCCCC1): 496 nm | emission maximum (in CC#N): 534 nm | emission maximum (in ClC(Cl)Cl): 531 nm
Structure (SMILES): c1cc2ccc1CCCc1cc3c(cc1CCCc1ccc(c4nsnc14)CCC3)CCC2

Structure (SMILES): CC1(C)c2cc(-n3c4ccccc4c4ccccc43)ccc2N(c2ccc(-c3cc(-c4ccccc4)nc(-c4ccccc4)n3)cc2)c2ccc(-n3c4ccccc4c4ccccc43)cc21
emission maximum (in Cc1ccccc1): 494.44 nm

emission maximum (in ClCCl): 433 nm
Structure (SMILES): C(S/C=C/c1ccc(-c2ccc(/C=C/SC=C3CCCCC3)cc2)cc1)=C1CCCCC1

emission maximum (in C1CCCCC1): 429 nm | emission maximum (in CC#N): 430 nm
Structure (SMILES): C[Si](C)(C)[Si](C)(C)c1c2ccccc2cc2ccccc12

emission maximum (in ClCCl): 422 nm
Structure (SMILES): CC(C)(C)C1CCC(=CS/C=C/c2ccc(/C=C/SC=C3CCC(C(C)(C)C)CC3)cc2)CC1 (centres undefined)

emission maximum (in ClCCl): 706 nm
Structure (SMILES): COc1ccc(C#Cc2c3cc4ccccc4cc3c(C#Cc3ccc(OC)cc3)c3cc4ccccc4cc23)cc1

emission maximum (in CCO): 443 nm
Structure (SMILES): CC(NC(=O)OC(C)(C)C)C(=O)OCc1ccc2c3cccc4cccc(c5cccc1c52)c43 (centres undefined)

Structure (SMILES): Cc1ccc2c(c1)C(c1ccccc1)(c1ccccc1)c1cc(C)ccc1N2c1cc(C(C)C)c(B2c3ccccc3Sc3ccccc32)c(C(C)C)c1
emission maximum (in Cc1ccccc1): 487 nm | emission maximum (in O=P(c1ccccc1)(c1ccccc1)c1ccc2oc3ccc(P(=O)(c4ccccc4)c4ccccc4)cc3c2c1): 485 nm

emission maximum (in C1CCOC1): 428 nm
Structure (SMILES): CCCCCCCCCc1c2ccccc2cc2c1oc1c3oc4c5oc6cc7ccccc7cc6c5c5ccccc5c4c3c3ccccc3c21

emission maximum (in CCO): 412 nm
Structure (SMILES): Cc1nc2cc3c4c(cccc4c2o1)C(=O)OC3=O

emission maximum (in CC#N): 480 nm
Structure (SMILES): Cc1ccc(-c2ccc(/C=C/c3ccc(Br)n3C)cn2)nc1

Structure (SMILES): Cc1c(C)c(B(c2c(C)c(C)c(N3c4ccccc4Oc4ccccc43)c(C)c2C)c2c(C)c(C)c(N3c4ccccc4Oc4ccccc43)c(C)c2C)c(C)c(C)c1C#N
emission maximum (in c1ccc([Si](c2ccccc2)(c2ccc(-n3c4ccccc4c4ccccc43)cc2)c2ccc(-n3c4ccccc4c4ccccc43)cc2)cc1): 517 nm

emission maximum (in ClCCl): 378 nm
Structure (SMILES): c1ccc(-n2c3ccccc3c3cc(-n4ccc5cc(-c6ccc7c(c6)C(c6ccccc6)(c6ccccc6)c6ccccc6-7)ccc54)ccc32)cc1

emission maximum (in CC1CCCCC1): 356.74 nm | emission maximum (in CC#N): 374.95 nm | emission maximum (in CO): 384.74 nm
Structure (SMILES): COC(=O)C(Cc1ccc2oc(-c3ccncc3)nc2c1)NC(=O)OC(C)(C)C (centres undefined)

Structure (SMILES): CC1=[N+]2C(=C(c3ccc(C#N)cc3)c3ccc(C)n3[B-]2(F)F)C=C1
emission maximum (in C1CCCCC1): 539 nm | emission maximum (in C1CCOC1): 540 nm | emission maximum (in CC#N): 537 nm | emission maximum (in CCOC(C)=O): 537 nm | emission maximum (in CO): 538 nm | emission maximum (in Cc1ccccc1): 543 nm | emission maximum (in ClC(Cl)Cl): 543 nm

emission maximum (in CCO): 440 nm | emission maximum (in ClCCl): 439 nm
Structure (SMILES): c1cnc(-c2c3ccccc3c(-c3ncccn3)c3ccccc23)nc1

emission maximum (in ClCCl): 515 nm
Structure (SMILES): CCCCCCN1C(=O)c2cccc3c(-c4ccc(-c5cc(-c6cccc7ccccc67)nn5-c5ccccc5)s4)ccc(c23)C1=O

emission maximum (in CS(C)=O): 520 nm
Structure (SMILES): COc1ccc(-c2cc(/C=C/c3ccc(N(c4ccccc4)c4ccccc4)cc3)c(C#N)c(N3CCCCC3)c2)cc1

emission maximum (in C1CCOC1): 449 nm
Structure (SMILES): c1ccc(-c2cnc3nn4ccccc4c3n2)cc1

emission maximum (in CO): 652 nm | emission maximum (in CS(C)=O): 664 nm | emission maximum (in O): 653 nm
Structure (SMILES): CCCN1/C(=C/C=C(/C=C/C2=[N+](CCC)c3ccccc3C2(C)C)c2ccc3ccccc3n2)C(C)(C)c2ccccc21

emission maximum (in CC#N): 519 nm | emission maximum (in CO): 562 nm
Structure (SMILES): O=c1c2ccccc2c2c3c(cccc13)c(-c1ccccc1)c1c3cccc4cccc(c43)c12

emission maximum (in CCO): 408 nm | emission maximum (in ClCCl): 515 nm | emission maximum (in O): 517 nm
Structure (SMILES): Oc1cc(-c2cccs2)ccc1-c1nc2ccccc2s1

emission maximum (in c1ccccc1): 448 nm
Structure (SMILES): COc1ccc2nc(-c3ccccc3)c(=O)oc2c1

emission maximum (in ClCCl): 427 nm
Structure (SMILES): c1ccc2cc(-c3c4ccccc4c(-c4ccc(-n5c6ccccc6c6ccccc65)cc4)c4ccccc34)ccc2c1

emission maximum (in C1CCOC1): 465 nm
Structure (SMILES): N#Cc1c(N2CCCCC2)cc(-c2cccc3ccccc23)c2c1CCc1ccccc1-2

emission maximum (in ClCCl): 387 nm
Structure (SMILES): CCCCCCOc1ccc2c(c1)-c1cc3c(cc1[Si]2(C)C)-c1ccccc1[Si]3(C)C

Structure (SMILES): CN(C)c1cc(C#N)c(N(C)C)c(C#N)c1
emission maximum (in C1CCCCC1): 495.79 nm | emission maximum (in C1CCOC1): 518.13 nm | emission maximum (in C1COCCO1): 521.65 nm | emission maximum (in CC1COC(=O)O1): 532.48 nm | emission maximum (in CC#N): 529.94 nm | emission maximum (in CC(C)=O): 524.93 nm | emission maximum (in CC(C)OC(C)C): 503.02 nm | emission maximum (in CCC#N): 525.76 nm | emission maximum (in CCC(C)C): 493.58 nm | emission maximum (in CCCCCC): 493.83 nm | emission maximum (in CCCCCCCCO): 523.29 nm | emission maximum (in CCCCCOCCCCC): 505.82 nm | emission maximum (in CCCCOC(C)=O): 516.8 nm | emission maximum (in CCCCOCCCC): 502.26 nm | emission maximum (in CCCOCCC): 507.61 nm | emission maximum (in CCO): 528.26 nm | emission maximum (in CCOC(C)=O): 519.21 nm | emission maximum (in CCOCC): 507.36 nm | emission maximum (in CN(C)C=O): 533.9 nm | emission maximum (in CO): 530.5 nm | emission maximum (in CS(C)=O): 538.21 nm | emission maximum (in Cc1ccccc1): 516.8 nm | emission maximum (in ClCCCl): 523.56 nm | emission maximum (in ClCCl): 522.74 nm | emission maximum (in N#Cc1ccccc1): 529.1 nm | emission maximum (in O): 555.25 nm | emission maximum (in OCC(O)CO): 547.35 nm | emission maximum (in c1ccccc1): 519.48 nm

Structure (SMILES): O=C(c1ccc(-n2c3ccc(-c4ccccc4)cc3c3cc(-c4ccccc4)ccc32)cc1)c1ccc(-n2c3ccc(-c4ccccc4)cc3c3cc(-c4ccccc4)ccc32)cc1
emission maximum (in Cc1ccccc1): 438 nm

emission maximum (in ClCCl): 448 nm
Structure (SMILES): COc1ccc(C2=Cc3cc4ccccc4cc3P2(=O)c2ccccc2)cc1 (centres undefined)

emission maximum (in ClCCl): 434 nm
Structure (SMILES): CCCCC(CC)COc1ccc2nc(-c3ccc(-c4ccc(OC)cc4)s3)sc2c1 (centres undefined)

Structure (SMILES): Nc1cccc2cccc(N)c12
emission maximum (in CC#N): 413 nm | emission maximum (in CO): 427 nm | emission maximum (in CS(C)=O): 411 nm | emission maximum (in Cc1ccccc1): 403 nm

emission maximum (in C1CCCCC1): 630 nm
Structure (SMILES): C(#Cc1cccc2cc(-c3ccccc3)c3cc(-c4cc[b-]5c(c4)c(-c4ccccc4)cc4cccc(C#Cc6ccccc6)[n+]54)cc[b-]3[n+]12)c1ccccc1

Structure (SMILES): c1ccc([B-]2(c3ccccc3)Oc3ccc4ccccc4c3-c3c4ccccc4nc[n+]32)cc1
emission maximum (in Cc1ccccc1): 543 nm

Structure (SMILES): Cc1cc(=O)oc2cc3c4ccccc4c4ccccc4c3cc12
emission maximum (in C1CCOC1): 410 nm | emission maximum (in CC#N): 419 nm | emission maximum (in CO): 420 nm | emission maximum (in CS(C)=O): 418 nm | emission maximum (in Cc1ccccc1): 410 nm | emission maximum (in ClC(Cl)Cl): 415 nm

emission maximum (in ClCCl): 400 nm
Structure (SMILES): CCCCC(CC)Cn1c2cc(C#N)ccc2c2ccc(C#Cc3ccc4ccc5c(C#Cc6ccc7c8ccc(C#N)cc8n(CC(CC)CCCC)c7c6)ccc6ccc3c4c65)cc21 (centres undefined)

emission maximum (in CC#N): 625 nm | emission maximum (in CCCCCC): 586 nm | emission maximum (in CO): 635 nm
Structure (SMILES): COc1ccc2c(c1)N(c1ccc(C)cc1)c1cc3c(cc1=N2)Oc1c(cc(C(C)(C)C)cc1C(C)(C)C)N=3

Structure (SMILES): C#CCNC1=C2C(C)=CC(C)=[N+]2[B-](F)(F)n2c(C)cc(C)c21
emission maximum (in C1CCCCC1): 501.5 nm | emission maximum (in CC(C)=O): 496 nm | emission maximum (in CCOC(C)=O): 497 nm | emission maximum (in CO): 496 nm | emission maximum (in OCC(F)(F)F): 494.5 nm

emission maximum (in C1CCOC1): 410 nm
Structure (SMILES): Cc1csc(C)c1C1=C(c2c(C)sc(-c3ccc(-c4nc(-c5ccccc5)c(-c5ccccc5)[nH]4)cc3)c2C)C(F)(F)C(F)(F)C1(F)F

emission maximum (in ClCCl): 434 nm
Structure (SMILES): CC(C)c1cccc(C(C)C)c1N1C(=O)c2cccc3c(Oc4ccc(C(C)(C)C)cc4)ccc(c23)C1=O

Structure (SMILES): CCCCCCc1ccc(-n2c3[n+](c4c5ccccc5c5ccccc5c42)[B-](C)(C)c2ccccc2-3)cc1
emission maximum (in C1CCOC1): 384 nm | emission maximum (in CC#N): 385 nm | emission maximum (in Cc1ccccc1): 385 nm | emission maximum (in ClCCl): 385 nm

emission maximum (in ClCCl): 531 nm
Structure (SMILES): CCCCN1C(=O)C2=C(c3ccc(Br)cc3)NC(=O)C2=C1c1ccc(Br)cc1

emission maximum (in ClCCl): 442 nm
Structure (SMILES): CC(C)(C)c1ccc(-n2c(-c3ccc(-c4ccc(N(c5ccccc5)c5ccccc5)cc4)cc3)nc3c4ccccc4c4ccccc4c32)cc1

emission maximum (in ClC(Cl)Cl): 634 nm
Structure (SMILES): N#CC(C#N)=Cc1ccc(-c2ccc(N(c3ccccc3)c3ccccc3)cc2)cc1

emission maximum (in ClC(Cl)Cl): 453 nm
Structure (SMILES): COc1ccc(-c2cc(-c3ccc(N(C)C)cc3)nc(-c3ccccc3)n2)cc1
